Assay results reported in ChEMBL document CHEMBL1201862, “PubChem BioAssay data set” (2004).
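Tested at 5 concentrations; 48 h exposure; 96-well plates; endpoints linearly interpolated, else capped at highest concentration. GI50 is the concentration that inhibits growth by half.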 The source made the active and inactive calls. No stated cut-off is given here; in the data, active = GI50 up to about 1.1 µM and inactive = higher.

Columns and labels:
Assay in all cases: growth of human tumour cells (NCI), 48 h
SF-539 = system: SF-539
RXF 393 = system: RXF 393
Malme-3M = system: Malme-3M
SN12C = system: SN12C
SNB-75 = system: SNB-75
SNB-78 = system: SNB-78
RPMI-8226 = system: RPMI-8226
UACC-62 = system: UACC-62
786-0 = system: 786-0
HOP-62 = system: HOP-62
M14 = system: M14
HL-60 = system: HL-60
HCT-15 = system: HCT-15
HOP-18 = system: HOP-18
EKVX = system: EKVX
KM-20L2 = system: KM-20L2
CCRF-CEM = system: CCRF-CEM
MOLT-4 = system: MOLT-4
SF-268 = system: SF-268
K562 = system: K562
UACC-257 = system: UACC-257
SK-MEL-2 = system: SK-MEL-2
M19-MEL = system: M19-MEL
SF-295 = system: SF-295
U-251 = system: U-251
KM12 = system: KM12
ACHN = system: ACHN
OVCAR-4 = system: OVCAR-4
SW-620 = system: SW-620
SK-OV-3 = system: SK-OV-3
HCT-116 = system: HCT-116
DLD-1 = system: DLD-1
SK-MEL-5 = system: SK-MEL-5
IGROV-1 = system: IGROV-1
HT-29 = system: HT-29
COLO 205 = system: COLO 205
OVCAR-3 = system: OVCAR-3
LXFL 529 = system: LXFL 529
TK-10 = system: TK-10
SNB-19 = system: SNB-19
DMS-273 = system: DMS-273
LOX IMVI = system: LOX IMVI
DMS-114 = system: DMS-114
XF498 = system: XF498
OVCAR-5 = system: OVCAR-5
A549 = system: A549
NCI-H23 = system: NCI-H23
HOP-92 = system: HOP-92
NCI-H460 = system: NCI-H460
UO-31 = system: UO-31
OVCAR-8 = system: OVCAR-8
HCC 2998 = system: HCC 2998
CAKI-1 = system: CAKI-1
SK-MEL-28 = system: SK-MEL-28
NCI-H522 = system: NCI-H522
NCI-H226 = system: NCI-H226
A498 = system: A498

COC(=O)/C(C)=C(/CCC1(C)OCCO1)O[Si](C)(C)C
GI50 (SF-539): > 100 µM (inactive) | GI50 (RXF 393): > 100 µM (inactive) | GI50 (Malme-3M): > 100 µM (inactive) | GI50 (SN12C): > 100 µM (inactive) | GI50 (SNB-75): 20.5 µM (inactive) | GI50 (SNB-78): > 100 µM (inactive) | GI50 (RPMI-8226): > 100 µM (inactive) | GI50 (UACC-62): > 100 µM (inactive) | GI50 (786-0): > 100 µM (inactive) | GI50 (HOP-62): > 100 µM (inactive) | GI50 (M14): > 100 µM (inactive) | GI50 (HL-60): > 100 µM (inactive) | GI50 (HCT-15): > 100 µM | GI50 (HOP-18): > 100 µM (inactive) | GI50 (EKVX): > 100 µM (inactive) | GI50 (KM-20L2): > 100 µM (inactive) | GI50 (CCRF-CEM): > 100 µM (inactive) | GI50 (MOLT-4): > 100 µM (inactive) | GI50 (SF-268): > 100 µM (inactive) | GI50 (K562): > 100 µM (inactive) | GI50 (UACC-257): > 100 µM (inactive) | GI50 (SK-MEL-2): > 100 µM (inactive) | GI50 (M19-MEL): > 100 µM (inactive) | GI50 (SF-295): > 100 µM (inactive) | GI50 (U-251): > 100 µM (inactive) | GI50 (KM12): > 100 µM (inactive) | GI50 (ACHN): > 100 µM (inactive) | GI50 (OVCAR-4): > 100 µM (inactive) | GI50 (SW-620): > 100 µM (inactive) | GI50 (SK-OV-3): > 100 µM (inactive) | GI50 (HCT-116): > 100 µM (inactive) | GI50 (DLD-1): > 100 µM (inactive) | GI50 (SK-MEL-5): > 100 µM (inactive) | GI50 (IGROV-1): > 100 µM (inactive) | GI50 (HT-29): > 100 µM (inactive) | GI50 (COLO 205): > 100 µM (inactive) | GI50 (OVCAR-3): > 100 µM (inactive) | GI50 (LXFL 529): > 100 µM (inactive) | GI50 (TK-10): > 100 µM (inactive) | GI50 (SNB-19): > 100 µM (inactive) | GI50 (DMS-273): > 100 µM (inactive) | GI50 (LOX IMVI): > 100 µM (inactive) | GI50 (DMS-114): > 100 µM (inactive) | GI50 (XF498): > 100 µM (inactive) | GI50 (OVCAR-5): > 100 µM (inactive) | GI50 (A549): > 100 µM (inactive) | GI50 (NCI-H23): > 100 µM (inactive) | GI50 (HOP-92): > 100 µM (inactive) | GI50 (NCI-H460): 47.1 µM (inactive) | GI50 (UO-31): 95.3 µM (inactive) | GI50 (OVCAR-8): > 100 µM (inactive) | GI50 (HCC 2998): > 100 µM (inactive) | GI50 (CAKI-1): > 100 µM (inactive)

CC(=O)O[C@H]1CC[C@@]2(C)C(=C/C(=N\[N+](=O)[O-])[C@H]3C4CCC([C@H](C)CCCC(C)C)[C@@]4(C)CCC32)C1 (some centres undefined)
GI50 (SF-539): > 100 µM (inactive) | GI50 (RXF 393): > 100 µM (inactive) | GI50 (Malme-3M): > 100 µM (inactive) | GI50 (SK-MEL-28): > 100 µM (inactive) | GI50 (SN12C): > 100 µM (inactive) | GI50 (SNB-75): > 100 µM (inactive) | GI50 (RPMI-8226): > 100 µM (inactive) | GI50 (UACC-62): > 100 µM (inactive) | GI50 (786-0): > 100 µM (inactive) | GI50 (HOP-62): > 100 µM (inactive) | GI50 (M14): > 100 µM (inactive) | GI50 (NCI-H522): > 100 µM (inactive) | GI50 (NCI-H226): > 100 µM (inactive) | GI50 (HL-60): > 100 µM (inactive) | GI50 (HCT-15): > 100 µM | GI50 (EKVX): > 100 µM (inactive) | GI50 (KM-20L2): > 100 µM (inactive) | GI50 (MOLT-4): > 100 µM (inactive) | GI50 (SF-268): > 100 µM (inactive) | GI50 (K562): > 100 µM (inactive) | GI50 (UACC-257): > 100 µM (inactive) | GI50 (SK-MEL-2): > 100 µM (inactive) | GI50 (M19-MEL): > 100 µM (inactive) | GI50 (SF-295): > 100 µM (inactive) | GI50 (ACHN): > 100 µM (inactive) | GI50 (OVCAR-4): > 100 µM (inactive) | GI50 (SW-620): > 100 µM (inactive) | GI50 (SK-OV-3): > 100 µM (inactive) | GI50 (HCT-116): > 100 µM (inactive) | GI50 (DLD-1): > 100 µM (inactive) | GI50 (SK-MEL-5): > 100 µM (inactive) | GI50 (IGROV-1): > 100 µM (inactive) | GI50 (HT-29): > 100 µM (inactive) | GI50 (COLO 205): > 100 µM (inactive) | GI50 (OVCAR-3): > 100 µM (inactive) | GI50 (LXFL 529): > 100 µM (inactive) | GI50 (TK-10): > 100 µM (inactive) | GI50 (SNB-19): > 100 µM (inactive) | GI50 (DMS-273): > 100 µM (inactive) | GI50 (LOX IMVI): > 100 µM (inactive) | GI50 (DMS-114): > 100 µM (inactive) | GI50 (XF498): > 100 µM (inactive) | GI50 (OVCAR-5): > 100 µM (inactive) | GI50 (A549): > 100 µM (inactive) | GI50 (NCI-H23): > 100 µM (inactive) | GI50 (HOP-92): > 100 µM (inactive) | GI50 (A498): > 100 µM (inactive) | GI50 (NCI-H460): > 100 µM (inactive) | GI50 (UO-31): > 100 µM (inactive) | GI50 (OVCAR-8): > 100 µM (inactive) | GI50 (CAKI-1): > 100 µM (inactive)
